Laboratory results: patent publication US10004701B2, “Methods and compositions for treating infection” (UNIVERSITY OF ROCHESTER, priority 2012, dated 2018)
Values after ≈ are worked out from the molar mass of the structure shown. Like-named read-outs stand apart in the source and are kept apart here.

Tests used:
[1] = test system: S. aureus strain UAMS-1 static biofilms; assay: AK assay of established biofilms (with plating); type: cell-based, Staphylococcus aureus; details: 10×MIC; for decrease in biofilm-associated bacteria / biofilm cell viability (plating): S. aureus UAMS-1 48-h biofilm, vs untreated
[2] = test system: S. aureus SCV strain UAMS-1112; assay: Small-colony variant AK assay (with plating); type: cell-based, Staphylococcus aureus
Protocol: Thirty-six-hour cultures of S. aureus strain UAMS-1112 were used to inoculate (1:100 dilution) 100 ml of fresh MH medium and grown at 37° C. on a rotary shaker at 225 rpm to an optical density (600 nm) of 0.1 to 0.2, corresponding to ˜1×10^6 CFU ml^−1. Cells were pelleted by centrifugation and resuspended in 2 ml of fresh MH medium. Ninety-eight microliters of MH medium containing 5×10^6 bacteria and 2 μl of the indicated antibiotic were added to individual wells of a white-walled, 96-well microtiter plate. Well components were mixed by pipetting and incubated at 37° C. for 3 h. The plate was equilibrated to room temperature for 30 min. Next, 100 μl of ToxiLight AK reagent was added to each well, followed by incubation at room temperature for 30 min, and luminescence was measured using a SpectraMax M5 plate reader.
SCV are slow-growing populations of bacterial species that have been hypothesized to cause latent or recurrent infections and are tolerant of standard antibiotic treatment regimens. Based on the aberrant SCV growth characteristics, typical growth-based HTS assays would be difficult to employ. Accordingly, the ability of the AK assay to identify agents that kill S. aureus SCV strain UAMS-1112 was tested. […].

[3] = test system: Pseudomonas aeruginosa PA01; assay: AK assay 96-well format; type: cell-based
[4] = test system: Klebsiella pneumoniae cKP1; assay: MIC testing; type: cell-based; details: Klebsiella pneumoniae cKP1
K. pneumoniae = assay: AK assay 384-well format, Prestwick library screening; type: cell-based, Klebsiella pneumoniae; details: Klebsiella pneumoniae, 3 h; planktonic K. pneumoniae; 50 μM final drug concentration; 384-well; cutoff for positive-scoring molecules 3-fold increase; read-out: AK-based Prestwick Library Screening Results: K. pneumoniae (increase in extracellular AK activity)
[5] = test system: Pseudomonas aeruginosa PA01; assay: MIC testing; type: cell-based
E. faecium = assay: AK assay 384-well format, Prestwick library screening; type: cell-based, Enterococcus faecium
[6] = test system: S. aureus strain USA300-0114; assay: as above; type: cell-based, Staphylococcus aureus; details: Staphylococcus aureus, USA300, 3 h; planktonic S. aureus; 50 μM final drug concentration; 384-well; cutoff for positive-scoring molecules 3-fold increase; read-out: AK-based Prestwick Library Screening Results: S. aureus (increase in extracellular AK activity)
E. coli = assay: as above; type: cell-based, Escherichia coli; details: Escherichia coli, 3 h; planktonic E. coli; 50 μM final drug concentration; 384-well; cutoff for positive-scoring molecules 3-fold increase; read-out: AK-based Prestwick Library Screening Results: E. coli (increase in extracellular AK activity)
[7] = test system: E. coli and each of the ESKAPE pathogens; assay: AK-based Prestwick library screening, summary across organisms; type: cell-based; details: 50 μM, cutoff 3-fold increase in AK
Staphylococcus aureus = assay: MIC testing; type: cell-based
[8] = test system: Acinetobacter baumannii 98-37-09; assay: MIC testing; type: cell-based; details: Acinetobacter baumannii 98-37-09
[9] = test system: Enterococcus faecium 824-05; assay: MIC testing; type: cell-based; details: Enterococcus faecium 824-05
P. aeruginosa = assay: AK assay 384-well format, Prestwick library screening; type: cell-based, Pseudomonas aeruginosa; details: Pseudomonas aeruginosa, 3 h; planktonic P. aeruginosa; 50 μM final drug concentration; 384-well; cutoff for positive-scoring molecules 3-fold increase; read-out: AK-based Prestwick Library Screening Results: P. aeruginosa (increase in extracellular AK activity)
[10] = test system: Enterobacter cloacae PMD1001; assay: MIC testing; type: cell-based
E. cloacae = assay: AK assay 384-well format, Prestwick library screening; type: cell-based, Enterobacter cloacae; details: Enterobacter cloacae, 3 h; planktonic E. cloacae; 50 μM final drug concentration; 384-well; cutoff for positive-scoring molecules 3-fold increase; read-out: AK-based Prestwick Library Screening Results: E. cloacae (increase in extracellular AK activity)
[11] = test system: A. baumannii strain 98-37-09; assay: as above; type: cell-based, Acinetobacter baumannii; details: Acinetobacter baumannii, 983709, 3 h; planktonic A. baumannii; 50 μM final drug concentration; 384-well; cutoff for positive-scoring molecules 3-fold increase; read-out: AK-based Prestwick Library Screening Results: A. baumannii (increase in extracellular AK activity)
Escherichia coli 8295 [12] = assay: MIC testing; type: cell-based
E. faecium strain 824-05 = assay: Galleria mellonella model of E. faecium infection; type: in vivo; details: larval survival 48 h postinoculation
[13] = test system: Acinetobacter baumannii 98-37-09; assay: AK assay 96-well format; type: cell-based; details: for Fold increase in AK signal: Acinetobacter baumannii 98-37-09
[14] = test system: Enterobacter cloacae PMD1001; assay: AK assay 96-well format; type: cell-based
[15] = test system: Klebsiella pneumoniae cKP1; assay: AK assay 96-well format; type: cell-based
Escherichia coli 8295 [16] = assay: AK assay 96-well format; type: cell-based
[17] = test system: A. baumannii strain 98-37-09 static biofilms; assay: AK assay of established biofilms (with plating); type: cell-based, Acinetobacter baumannii; details: A. baumannii 98-37-09 biofilm; 10×MIC overnight; vs untreated
Protocol: Biofilms were grown as previously described (Beenken et al. Infect. Immun. 71: 4206-4211 (2003); Musken et al. Nat. Protoc. 5: […] (2010); Tomaras et al. Microbiology 149: 3473-3483 (2003)). Briefly, P. aeruginosa and A. baumannii were cultured overnight in Luria-Bertani medium and then used to seed 96-well, flat-bottom plates. Plates were incubated at 37° C. in a humidified incubator for 48 h to allow the formation of static biofilms. Nonadherent cells were removed by aspiration and washing with sterile phosphate-buffered saline (PBS). […] Following treatment, 100 μl of each biofilm supernatant was transferred to 96-well, white-walled plates, 100 μl of ToxiLight AK reagent was added to each well, mixtures were incubated for 30 min at room temperature, and luminescence was measured using a SpectraMax M5 plate reader. Biofilm-associated bacteria were enumerated by resuspending each biofilm in fresh PBS and plating. […] Established S. aureus biofilms were washed once with PBS and then treated with a 100 μl of ToxiLight lysis buffer for 3 h, after which the amount of AK released into supernatants was measured, as described above.
Following overnight antibiotic treatment, biofilm-associated bacteria were enumerated by plating, and the corresponding supernatants were analyzed by the AK assay.

[18] = S. aureus UAMS-1112, 1× or 10×MIC for 3 h

**Q.** O=C(O)c1cn(C2CC2)c2cc(N3CCNCC3)c(F)cc2c1=O [Ciprofloxacin, ciprofloxacin] was tested. Which “decrease in biofilm-associated bacteria / biofilm cell viability (plating)” value [1] did it give?
**A.** Its value is 0.7 log.

**Q.** What about the “decrease in SCV viability (plating)” value [2, 18] of the same compound?
**A.** Its value is “no effect”.

**Q.** What about the “increase in AK signal compared to mock-treated cells” value [2, 18] of the same compound?
**A.** Its value is “no change”.

**Q.** What does the source list for CC[C@H]1OC(=O)[C@H](C)[C@@H](O[C@H]2C[C@@](C)(OC)[C@@H](O)[C@H](C)O2)[C@H](C)[C@@H](O[C@@H]2O[C@H](C)C[C@H](N(C)C)[C@H]2O)[C@](C)(O)C[C@@H](C)C(=O)[C@H](C)[C@@H](O)[C@]1(C)O [Erythromycin, erythromycin]?
**A.** Fold increase in AK signal ([3]; treatment 0.5×MIC): 3 fold; Fold increase in AK signal ([3]; treatment 1.0×MIC): 1 fold; MIC ([4]; read-out: MIC): > 256 µg/mL; fold induction at 50 µM (K. pneumoniae): 1; MIC ([5]; read-out: MIC): 32 µg/mL (≈ 43.6 µM); fold induction at 50 µM (E. faecium; Enterococcus faecium, 3 h, planktonic E. faecium, 50 μM final drug concentration, 384-well, cutoff for positive-scoring molecules 3-fold increase, read-out: AK-based Prestwick Library Screening Results: E. faecium (increase in extracellular AK activity)): 1; fold induction at 50 µM [6]: 8.2; fold induction at 50 µM (E. coli): 1; activity in AK Prestwick screen, all species tested [7]: not identified as being active; MIC (Staphylococcus aureus; Staphylococcus aureus): 2 µg/mL (≈ 2.73 µM); MIC (Staphylococcus aureus; Staphylococcus aureus USA300-0114, read-out: MIC): 64 µg/mL (≈ 87.2 µM); MIC ([8]; 983709, read-out: MIC): 16 µg/mL (≈ 21.8 µM); MIC ([9]; 82405, read-out: MIC): > 256 µg/mL; fold induction at 50 µM (P. aeruginosa): 0.7; MIC [10]: 256 µg/mL (≈ 349 µM); fold induction at 50 µM (E. cloacae): 1.6; fold induction at 50 µM [11]: 1.5; MIC (Escherichia coli 8295 [12]): 256 µg/mL (≈ 349 µM)

**Q.** How did the “activity in AK Prestwick screen” value (E. faecium; E. faecium, 50 μM, cutoff 3-fold increase in AK) turn out when CC/C(=C(\c1ccccc1)c1ccc(OCCN(C)C)cc1)c1ccccc1 [Tamoxifen, tamoxifen] was run?
**A.** Its value is “identified”.

**Q.** What about the “higher survival than vehicle-treated controls” value (E. faecium strain 824-05; 80 mg kg-1 at 2 h and 24 h) of the same compound?
**A.** Its value is 4.2 fold.

**Q.** And the “higher survival than vehicle-treated controls” value (E. faecium strain 824-05; 160 mg kg-1 at 2 h and 24 h)?
**A.** The value was 7 fold.

**Q.** And the MIC ([9]; 82405, read-out: MIC)?
**A.** The MIC was 8 µg/mL (≈ 21.5 µM).

**Q.** How did the “Fold increase in AK signal” value ([3]; treatment 0.5×MIC) turn out when colistin was run?
**A.** Its value is 5 fold.

**Q.** And the “Fold increase in AK signal” value ([3]; treatment 1.0×MIC)?
**A.** The value was 12 fold.

**Q.** What about the MIC [4] of the same compound?
**A.** Its MIC is 8 µg/mL.

**Q.** What about the MIC [5] of the same compound?
**A.** The MIC was 4 µg/mL.

**Q.** And the AK release ([13]; A. baumannii 98-37-09, 0.25×, 0.5×, and 1×MIC)?
**A.** The AK release was “robustly detected”.

**Q.** What about the “Fold increase in AK signal” value ([13]; treatment 0.5×MIC) of the same compound?
**A.** The value was 17 fold.

**Q.** And the “Fold increase in AK signal” value ([13]; treatment 1.0×MIC)?
**A.** The value was 49 fold.

**Q.** What about the MIC (Staphylococcus aureus; Staphylococcus aureus RN4220) of the same compound?
**A.** Its MIC is greater than 256 µg/mL.

**Q.** And the MIC (Staphylococcus aureus; Staphylococcus aureus USA300-0114)?
**A.** Its MIC is greater than 256 µg/mL.

**Q.** What about the “Fold increase in AK signal” value ([14]; treatment 0.5×MIC) of the same compound?
**A.** Its value is 10 fold.

**Q.** What about the “Fold increase in AK signal” value ([14]; treatment 1.0×MIC) of the same compound?
**A.** Its value is 32 fold.

**Q.** What about the MIC [8] of the same compound?
**A.** The MIC was 4 µg/mL.

**Q.** What about the “Fold increase in AK signal” value ([15]; treatment 0.5×MIC) of the same compound?
**A.** Its value is 34 fold.

**Q.** And the “Fold increase in AK signal” value ([15]; treatment 1.0×MIC)?
**A.** The value was 33 fold.

**Q.** What about the “Fold increase in AK signal” value (Escherichia coli 8295 [16]; treatment 0.5×MIC) of the same compound?
**A.** Its value is 15 fold.

**Q.** What about the “Fold increase in AK signal” value (Escherichia coli 8295 [16]; treatment 1.0×MIC) of the same compound?
**A.** The value was 22 fold.

**Q.** What about the “decrease in biofilm-associated bacteria (plating)” value [17] of the same compound?
**A.** The value was 1.8 log.

**Q.** And the MIC [9]?
**A.** Its MIC is greater than 256 µg/mL.

**Q.** And the MIC [10]?
**A.** The MIC was 2 µg/mL.

**Q.** And the MIC (Escherichia coli 8295 [12])?
**A.** The MIC was 8 µg/mL.

**Q.** How did the “increase in AK release” value ([1]; 48-h S. aureus UAMS-1 biofilms) turn out when CC(C)(C)c1ccc(C(O)CCCN2CCC(C(O)(c3ccccc3)c3ccccc3)CC2)cc1 (centres unmarked) [Terfenadine] was run?
**A.** The value was 2.7 fold.

**Q.** And the “decrease in biofilm-associated bacteria / biofilm cell viability (plating)” value [1]?
**A.** The value was 1.1 log.

**Q.** What about the MIC (Staphylococcus aureus; Staphylococcus aureus, S. aureus UAMS-1112 (small-colony variant), read-out: MIC) of the same compound?
**A.** Its MIC is 2 µg/mL (≈ 4.24 µM).

**Q.** And the MIC ([8]; 983709, read-out: MIC)?
**A.** Its MIC is 64 µg/mL (≈ 136 µM).

**Q.** And the “increase in AK signal compared to mock-treated cells” value ([2]; S. aureus small-colony-variant UAMS-1112, 10×MIC)?
**A.** Its value is 3.3 fold.
